# Data reported in patent US20220313581A1, “NOVEL COMPOUNDS FOR SKIN LIGHTENING” (Conopco, Inc. , d/b/a UNILEVER, priority 2019, published 2022).
# Tested on: Melanoderm human tissue (MEL-300-B, Mattek Corp.)
# Test: Melanoderm assay (melanin quantitation)
# Format: cell-based
# Settings: for Melanin content / skin lightening effect (in words): melanoderm treatment, 10 uM, compared to vehicle control; for Melanin (μg/μg protein): test compound 10 uM, 12 d dosing, melanin normalized to protein, mean +/− standard deviation, n = 3, vehicle control 0.240 +/− 0.020
# Experimental: Control compounds consisted of a negative control (ultrapure water), vehicle control [Dimethylsulfoxide (DMSO) in ultrapure water—final concentration of 0.1%] and positive control (2% kojic acid in ultrapure water—final concentration of 700 uM). Test compounds where prepared in DMSO at 10 mM concentrations and diluted with EPI-100-LLMM media (Mattek Corp.) to a final concentration of 10 uM. Melanoderm human tissue (MEL-300-B, Mattek Corp.) was equilibrated with EPI-100-NMM media for 24 h, followed by equilibration with EPI-100-LLMM media for 48 h prior to treatment with test compounds and controls. Dosing and re-feeding of melanoderms with controls and test compounds continued for a total of 12 d following standard protocols and the melanoderms collected for melanin quantitation, viability analysis and macroscopic/microscopic imaging analysis. For melanin quantitation, tissues were suspended in phosphate buffer saline (PBS) buffer (5 ml) for 5 min, removed from the PBS and washed/rinsed with additional PBS (2 ml). Tissues were treated with 1% sodium bicarbonate solution (300 ul) for 30 min, followed by removal of the sodium bicarbonate solution and washed/rinsed with PBS solution (2×2 ml). Tissues were suspended in Solvable reagent (500 ul) and incubated at 95° C. for 24 h along with melanin standard samples (prepared by suspending melanin (cat #M8631, Sigma-Aldrich) in Solvable reagent to generate melanin standards at 0, 2.5, 5, 10, 25, 50 and 100 ug). All incubated samples were centrifuged at 13000 rpm for 5 min and the optical density of the supernatant was read/determined at 490 nm. The amount of melanin (ug) from each tissue sample was determined from the melanin standard samples calibration curve. Protein concentration of tissue samples was determined using the BCA protein assay kit (Pierce) and melanin content was normalized and expressed as melanin (ug)/protein (ug) (Table 1). Tissue viability as a result of test compound dosing/feeding relative to negative and vehicle controls was determined using the WST-1 reagent kit (cat #05015944001, Roche). Tissue images were examined macroscopically to assess the skin lightening ability of test compounds compared to negative, vehicle and positive controls and microscopically (10× magnification) to assess cytotoxicity.
Compound,Melanin content / skin lightening effect (in words),Melanin (μg/μg protein)
"CC(C)Oc1ccc(C(NC2CCC(O)CC2)C2CCCCC2)cc1 (stereo not drawn) [Example 1, 4-((cyclohexyl(4-isopropoxyphenyl)methyl)amino)cyclohexanol]",reduced melanin content,0.158 +/− 0.006 μg/μg protein
"CC(C)Oc1ccc(C(NC2CCC(CCO)CC2)c2ccccc2)cc1 (stereo not drawn) [Example 2, 2-(4-(((4-isopropoxyphenyl)(phenyl)methyl)amino)cyclohexyl)ethanol]",reduced melanin content,0.076 +/− 0.012 μg/μg protein
"CC1CCC(NC(c2ccccc2)c2ccc(OC(C)C)cc2)CC1 (stereo not drawn) [Example 3, N-((4-isopropoxyphenyl)(phenyl)methyl)-4-methylcyclohexanamine]",reduced melanin content,0.144 +/− 0.006 μg/μg protein
